Drawing on PubChem BioAssay AID1259407 (Chemical Carcinogenesis Research Information System (CCRIS), 2018), this text covers mutagenic call for 6 molecules.

Activity calls are given as the source filed them. The rule behind the calls is not given here.

The data set concerns CCRIS mutagenicity, Ames/micronucleus/aberration tests. The data set is described as follows: CCRIS mutagenicity studies.
Setting [1] is: Test System: AMES SALMONELLA TYPHIMURIUM, Strain/Indicator: TA98, Metabolic Activation: NONE, Method: STANDARD PLATE.
Setting [2] is: Test System: AMES SALMONELLA TYPHIMURIUM, Strain/Indicator: TA102, Metabolic Activation: NONE, Method: STANDARD PLATE.
The mark [3] stands for this setting: Test System: AMES SALMONELLA TYPHIMURIUM, Strain/Indicator: TA100, Metabolic Activation: NONE, Method: STANDARD PLATE.
[4] abbreviates: Test System: AMES SALMONELLA TYPHIMURIUM, Strain/Indicator: TA100, Metabolic Activation: RAT, LIVER, S-9, AROCLOR 1254, Method: STANDARD PLATE.

For `[Pb]`, the mutagenic call is, setting by setting: (End Point: IN VIVO MICRONUCLEUS, Test System: PERIPHERAL BLOOD LYMPHOCYTES, Species: HUMAN, Strain/Sex: MALE, Route: PROBABLY INHALATION, Method: 72 HR CONTINUOUS TREATMENT) “active; positive”; under setting [1], “inactive; negative”; (Test System: AMES SALMONELLA TYPHIMURIUM, Strain/Indicator: TA98, Metabolic Activation: RAT, LIVER, S-9, PHENOBARBITAL, Method: STANDARD PLATE) “inactive; negative”; under setting [2], “active; positive”; (Test System: AMES SALMONELLA TYPHIMURIUM, Strain/Indicator: TA102, Metabolic Activation: RAT, LIVER, S-9, PHENOBARBITAL, Method: STANDARD PLATE) “inactive; negative”; (Test System: AMES SALMONELLA TYPHIMURIUM, Strain/Indicator: TA1535, Metabolic Activation: NONE, Method: STANDARD PLATE) “inactive; negative”. Also, the mutagenic call is, setting by setting: (Test System: AMES SALMONELLA TYPHIMURIUM, Strain/Indicator: TA1535, Metabolic Activation: RAT, LIVER, S-9, PHENOBARBITAL, Method: STANDARD PLATE) “inactive; negative”; (Test System: AMES SALMONELLA TYPHIMURIUM, Strain/Indicator: TA1537, Metabolic Activation: NONE, Method: STANDARD PLATE) “inactive; negative”; (Test System: AMES SALMONELLA TYPHIMURIUM, Strain/Indicator: TA1537, Metabolic Activation: RAT, LIVER, S-9, PHENOBARBITAL, Method: STANDARD PLATE) “inactive; negative”.

On to `CNP(=S)(N1CC1)N1CC1`, for which the mutagenic call (Test System: AMES SALMONELLA TYPHIMURIUM, Strain/Indicator: G46, Metabolic Activation: HOST MEDIATED, Method: STANDARD PLATE) was “active; positive”.

Consider `O=C1C=CC(=O)c2c(O)c(Cl)c(Cl)c(O)c21`, for which the mutagenic call is “inactive; negative” (Test System: AMES SALMONELLA TYPHIMURIUM, Strain/Indicator: TA97, Metabolic Activation: NONE, Method: PREINCUBATION); “active; positive” (Test System: AMES SALMONELLA TYPHIMURIUM, Strain/Indicator: TA97, Metabolic Activation: RAT, LIVER, S-9, PHENOBARBITAL AND 5,6-BENZOFLAVONE, Method: PREINCUBATION); “inactive; negative” (Test System: AMES SALMONELLA TYPHIMURIUM, Strain/Indicator: TA98, Metabolic Activation: NONE, Method: PREINCUBATION); “inactive; negative” (Test System: AMES SALMONELLA TYPHIMURIUM, Strain/Indicator: TA98, Metabolic Activation: RAT, LIVER, S-9, PHENOBARBITAL AND 5,6-BENZOFLAVONE, Method: PREINCUBATION); “inactive; negative” (Test System: AMES SALMONELLA TYPHIMURIUM, Strain/Indicator: TA100, Metabolic Activation: NONE, Method: PREINCUBATION); “inactive; negative” (Test System: AMES SALMONELLA TYPHIMURIUM, Strain/Indicator: TA100, Metabolic Activation: RAT, LIVER, S-9, PHENOBARBITAL AND 5,6-BENZOFLAVONE, Method: PREINCUBATION). Also, the mutagenic call by setting is: (Test System: AMES SALMONELLA TYPHIMURIUM, Strain/Indicator: TA102, Metabolic Activation: NONE, Method: PREINCUBATION) “inactive; negative”; (Test System: AMES SALMONELLA TYPHIMURIUM, Strain/Indicator: TA102, Metabolic Activation: RAT, LIVER, S-9, PHENOBARBITAL AND 5,6-BENZOFLAVONE, Method: PREINCUBATION) “active; positive”; (Test System: AMES SALMONELLA TYPHIMURIUM, Strain/Indicator: TA104, Metabolic Activation: NONE, Method: PREINCUBATION) “active; positive”; (Test System: AMES SALMONELLA TYPHIMURIUM, Strain/Indicator: TA104, Metabolic Activation: RAT, LIVER, S-9, PHENOBARBITAL AND 5,6-BENZOFLAVONE, Method: PREINCUBATION) “active; positive”; (Test System: AMES SALMONELLA TYPHIMURIUM, Strain/Indicator: TA1535, Metabolic Activation: NONE, Method: PREINCUBATION) “inactive; negative”; (Test System: AMES SALMONELLA TYPHIMURIUM, Strain/Indicator: TA1535, Metabolic Activation: RAT, LIVER, S-9, PHENOBARBITAL AND 5,6-BENZOFLAVONE, Method: PREINCUBATION) “inactive; negative”. Besides, the mutagenic call is, setting by setting: (Test System: AMES SALMONELLA TYPHIMURIUM, Strain/Indicator: TA1537, Metabolic Activation: NONE, Method: PREINCUBATION) “inactive; negative”; (Test System: AMES SALMONELLA TYPHIMURIUM, Strain/Indicator: TA1537, Metabolic Activation: RAT, LIVER, S-9, PHENOBARBITAL AND 5,6-BENZOFLAVONE, Method: PREINCUBATION) “active; positive”; (Test System: AMES SALMONELLA TYPHIMURIUM, Strain/Indicator: TA1538, Metabolic Activation: NONE, Method: PREINCUBATION) “inactive; negative”; (Test System: AMES SALMONELLA TYPHIMURIUM, Strain/Indicator: TA1538, Metabolic Activation: RAT, LIVER, S-9, PHENOBARBITAL AND 5,6-BENZOFLAVONE, Method: PREINCUBATION) “inactive; negative”; (Test System: AMES SALMONELLA TYPHIMURIUM, Strain/Indicator: TA2637, Metabolic Activation: NONE, Method: PREINCUBATION) “inactive; negative”; (Test System: AMES SALMONELLA TYPHIMURIUM, Strain/Indicator: TA2637, Metabolic Activation: RAT, LIVER, S-9, PHENOBARBITAL AND 5,6-BENZOFLAVONE, Method: PREINCUBATION) “active; positive”.

Regarding `CCOc1ccc(C(C)(C)C)cc1NC(=O)C(=O)Nc1ccccc1CC`, the mutagenic call reads like this: (Test System: AMES SALMONELLA TYPHIMURIUM, Strain/Indicator: TA97, Metabolic Activation: NONE, Method: STANDARD PLATE) “inactive; negative”; (Test System: AMES SALMONELLA TYPHIMURIUM, Strain/Indicator: TA97, Metabolic Activation: S-9, Method: STANDARD PLATE) “inactive; negative”; under setting [1], “inactive; negative”; (Test System: AMES SALMONELLA TYPHIMURIUM, Strain/Indicator: TA98, Metabolic Activation: S-9, Method: STANDARD PLATE) “inactive; negative”; under setting [3], “inactive; negative”; (Test System: AMES SALMONELLA TYPHIMURIUM, Strain/Indicator: TA100, Metabolic Activation: S-9, Method: STANDARD PLATE) “inactive; negative”. For the same molecule, the mutagenic call under setting [2] is “inactive; negative”; the mutagenic call (Test System: AMES SALMONELLA TYPHIMURIUM, Strain/Indicator: TA102, Metabolic Activation: S-9, Method: STANDARD PLATE) is “inactive; negative”; the mutagenic call (Test System: E.COLI, Strain/Indicator: WP2 (PKM101), Metabolic Activation: NONE, Method: STANDARD PLATE) was “inactive; negative”; the mutagenic call (Test System: E.COLI, Strain/Indicator: WP2 (PKM101), Metabolic Activation: S-9, Method: STANDARD PLATE) is “inactive; negative”.

For `c1ccc2c(c1)Cc1c-2ccc2ccc3ccccc3c12`, under setting [4], the mutagenic call was “active; positive”.

Regarding `O=C(c1ccc([N+](=O)[O-])cc1)[C@@H]1O[C@@H]1c1ccccc1`, the mutagenic call under setting [1] is “inactive; negative”; the mutagenic call (Test System: AMES SALMONELLA TYPHIMURIUM, Strain/Indicator: TA98, Metabolic Activation: RAT, LIVER, S-9, AROCLOR 1254, Method: STANDARD PLATE) was “inactive; negative”; the mutagenic call under setting [3] was “active; positive”; the mutagenic call under setting [4] was “active; positive”.
